The conditions of this data set: for aqueous solubility: pH 6.8.

≈ marks a conversion by molar mass, not a printed value.

Take `CN(Cc1cnn(C)c1)C(=O)c1ccccc1-c1ccccc1C#N`: the MDR1-MDCK efflux ratio is 19.3; the intrinsic clearance, human liver microsomes was 64 mL/min/kg; the intrinsic clearance, rat liver microsomes was no more than 10.7 mL/min/kg; the aqueous solubility (in general, the dissolved amount per volume that the medium holds) turned out to be 40.4 µg/mL (≈ 122 µM).
Take `CC(O)(C#Cc1ccc2c(c1)N(c1nc(N)ncc1Cl)CC2)c1nccs1` (stereo not given): the MDR1-MDCK efflux ratio came to 5.75; the fraction unbound, human plasma worked out at 0.00754; the fraction unbound, rat plasma was 0.0188; the intrinsic clearance, human liver microsomes was 72.5 mL/min/kg. Moreover, the intrinsic clearance, rat liver microsomes worked out at 327 mL/min/kg.
In the case of `CC1(C)CC(=O)c2c(C(F)(F)F)nn(-c3ccc(C(N)=O)c(N[C@H]4CC[C@@H](O)CC4)c3)c2C1`, the MDR1-MDCK efflux ratio was 109; the intrinsic clearance, human liver microsomes was found to be 47.7 mL/min/kg; the intrinsic clearance, rat liver microsomes came to 108 mL/min/kg.
Turning to `Cc1ccc(C(=O)Nc2ccccc2C#N)cc1`, the intrinsic clearance, human liver microsomes stood at 88.2 mL/min/kg; the intrinsic clearance, rat liver microsomes worked out at 173 mL/min/kg; the aqueous solubility was 10.4 µg/mL (≈ 43.9 µM).
Regarding `COC(=O)c1ccc(NS(=O)(=O)c2ccc3c(c2)n(C)c(=O)n3C)cc1`, the MDR1-MDCK efflux ratio was 20.5 and the aqueous solubility was determined as 15.6 µg/mL (≈ 41.6 µM).
Regarding `CCCC(=O)Nc1cnc(N2CCN(C)CC2)nc1`, the MDR1-MDCK efflux ratio is 1.39; the intrinsic clearance, human liver microsomes was no more than 4.74 mL/min/kg; the intrinsic clearance, rat liver microsomes was 34.4 mL/min/kg; the aqueous solubility amounted to 35.3 µg/mL (≈ 134 µM).
In the same order, the values of `c1csc(-c2csc3nc(CN4CCOCC4)nc(N4CCc5[nH]ncc5C4)c23)c1` are 83.5, 559 mL/min/kg, 1320 mL/min/kg and 49 µg/mL (≈ 112 µM).
With `O=C(NCC1=CCCN(Cc2cc(F)ccc2Cl)C1)c1ccco1`, the MDR1-MDCK efflux ratio amounted to 0.69; the intrinsic clearance, human liver microsomes was found to be 200 mL/min/kg; the intrinsic clearance, rat liver microsomes is 1640 mL/min/kg; the aqueous solubility was found to be 37.8 µg/mL (≈ 108 µM).
In the same order, the values of `C[C@@H](C(=O)N1CCCC1)N1CCC(n2c(=O)[nH]c3ccccc32)CC1` are 162, no more than 4.74 mL/min/kg, 64.5 mL/min/kg and 40.6 µg/mL (≈ 119 µM).
As for `Cc1nc(NCc2cn(C)nc2-c2cccs2)n(C)n1`, the MDR1-MDCK efflux ratio stood at 12.7; the intrinsic clearance, human liver microsomes was no more than 4.74 mL/min/kg; the intrinsic clearance, rat liver microsomes is 27.9 mL/min/kg.
`CN(C)c1ncn(-c2cccc(N)c2)n1`: the MDR1-MDCK efflux ratio came to 0.596; the intrinsic clearance, human liver microsomes came to 15.3 mL/min/kg; the intrinsic clearance, rat liver microsomes came to 25.4 mL/min/kg; the aqueous solubility amounted to 22.1 µg/mL (≈ 109 µM).
In the same order, the values of `CCCN1CCn2nc(-c3nc4cc(OC)ccc4[nH]3)cc2C1` are 0.825, no more than 4.74 mL/min/kg, 280 mL/min/kg and 40.1 µg/mL (≈ 129 µM).
In the case of `Cc1n[nH]c(C2CCN(C(=O)NC3CCN(c4ccc(F)cc4)CC3)CC2)n1`, the MDR1-MDCK efflux ratio was determined as 22.9; the intrinsic clearance, human liver microsomes is no more than 4.74 mL/min/kg; the intrinsic clearance, rat liver microsomes was 38.3 mL/min/kg.
In turn, `Cc1cc(NC(=O)c2cc(F)cc(F)c2)sn1` showed an intrinsic clearance, human liver microsomes of 130 mL/min/kg and an intrinsic clearance, rat liver microsomes of 77.3 mL/min/kg.
For the molecule `COCC1CCN(c2noc(-c3cccs3)n2)CC1`, the MDR1-MDCK efflux ratio stood at 0.541; the intrinsic clearance, human liver microsomes worked out at 39.6 mL/min/kg; the intrinsic clearance, rat liver microsomes came out at 325 mL/min/kg; the aqueous solubility was 12.9 µg/mL (≈ 46.1 µM).
For the molecule `O=C(Nc1nccs1)C1CCN(C(=O)CN2CCc3ccccc32)CC1`, the MDR1-MDCK efflux ratio was 24.4; the intrinsic clearance, human liver microsomes came out at 33.2 mL/min/kg; the intrinsic clearance, rat liver microsomes worked out at 394 mL/min/kg; the aqueous solubility stood at 51.4 µg/mL (≈ 139 µM).
Regarding `O=C1CCC(=O)N1CCSc1ncc(-c2ccc(F)cc2)[nH]1`, the MDR1-MDCK efflux ratio was determined as 2.4; the intrinsic clearance, human liver microsomes was 35.6 mL/min/kg; the intrinsic clearance, rat liver microsomes worked out at 717 mL/min/kg.

Source of the values: the Biogen ADME set (Fang et al. 2023).
